For one data set, the system named is P-gp. Set-up: method as in Li, 2010. Particulars: ref Li, 2010; cited from earlier work.
On the set-up of data set [1]: method as in Hu et al., 2011. Conditions: rats, oral administration; ref Hu et al., 2011; cited from earlier work.
A short description of data set [2]: Clearance prediction from incubation with human liver microsomes. Format: in vitro ADME. The protocol: Drug disappearance t1/2 value measurements in rat and human microsomes were used to determine the in vitro apparent intrinsic clearance value (CLintapp) of buagafuran acquired using Then CLintapp was converted to in vivo intrinsic clearance (CLint).
Rat or human liver microsomal incubation (0.5 mg/mL) was carried out at 37°C in a mixture of 0.5 mL in 0.05 M Tris–HCl buffer (pH 7.4). Buagafuran (2 μM) was added to the incubation system. The addition of NADPH (1 mM) initiated the reaction, then the reaction was incubated for 0, 10, 20, 30, 45, and 60 min. The equal volume of acetonitrile containing the IS (10 ng/mL) was added to stop the reaction. The mixtures were centrifuged at 16000 g for 5 min and the supernatants were determined using LC-MS/MS method.
The natural log (In) of buagafuran concentration versus time was plotted and the slope of the best fit line of was determined by the data (k). This was converted into in vitro t1/2 where t1/2 = In 2/k. CLintapp was calculated by the following equation: […]
Where M is the microsomal protein concentration in the incubation. CLint by liver was calculated from equation 2:
(2) CLint=CLint(app)×mgmicrosome/gliver×liverweight(g)/bodyweight(kg)
Where a value of 45 mg of protein per gram of liver tissue was used for both rat and human, and a liver weight of 40 and 21 g per kg were applied to rat and human, respectively ([Hosea et al., 2009]). […]

Data set [3] is described as follows: Brain concentrations in the rat after oral dosing (observed). Format: in vivo, male Wistar rats. Particulars: oral 4 mg/kg. The source says: Animal Care and Welfare Committee of Institute of Materia Medica, Chinese Academy of Medical Sciences approved all animal protocols (1 Xian nong tan Street, Xicheng District, Beijing, China; Permission Number: SYXK 2014-0023, Expiration: 06 Aug, 2019). All animal programs are in compliance with the Guide for the Care and Use of Laboratory Animals issued by Beijing Association on Laboratory Animal Care (BALAC). Buagafuran formulation of PVP was suspended in deionized water and was orally administered at 4 or 8 mg/kg to male Wistar rats (weighing 180–200 g). Brain samples treated with the dose of 4 mg/kg and blood samples of both treatments were collected over 3 h. Plasma samples were obtained by centrifugation, and brain tissues were homogenized in a threefold volume (w/v) of saline. Buagafuran concentrations in plasma and brain samples were quantitated by an LC-MS/MS method ([Yang et al., 2011]).
A volume of 200 μL plasma or tissue homogenate was mixed with 100 μL IS (10 ng/mL) followed by addition of 2 mL hexane. After vortexing for 2 min, the mixture was centrifuged for 5 min at 3000 g. The extracted solution was combined and evaporated to dryness at 25°C. […] The outlet of the column was detected in positive ionization electrospray mode with selected reaction monitoring. The monitored transitions of buagafuran and IS were m/z 245→105 and 500→142, respectively. […]

A short description of data set [4]: Plasma protein binding by equilibrium dialysis, rat plasma. The data set is classed as in vitro ADME. Conditions: 0.5–2 μg/mL. The protocol: The plasma protein binding of buagafuran (0.5–2 μg/mL) was investigated by equilibrium dialysis. Aliquots (0.5 mL) of plasma were dialyzed against 10 mL phosphate buffered saline containing a ^3H-buagafuran tracer over a membrane with an 8,000- to 12,000-dalton molecular weight cutoff. Dialysis experiment was performed for 60 h at 4 °C. After the dialysis period, 100 μL of the PBS fraction (containing unbound buagafuran) and 100 μL of the plasma fraction (containing both bound and unbound drug) was taken for liquid scintillation counting. The ratio of buagafuran concentration in buffer to that in plasma was applied to calculate the unbound fraction (Fu).

The test system of another data set is CYP3A and CYP2E. On the set-up: method as in Zhang, 1997; Li et al., 2001; Li, 2010. Particulars: ref Zhang, 1997, Li et al., 2001, 2010; cited from earlier work.

What is called fraction unbound is the share of the substance not bound to proteins or other matrix.

With `CCCCC1=CCC[C@@]2(C)CC[C@@H]3C[C@]12OC3(C)C` [buagafuran], the “substrate of the transporter P-gp” value with P-gp is “substrate of the transporter P-gp”. In data set [1], the “dose recovered as prototype in the bile” value is recorded as less than 0.3%, the “dose recovered as prototype in the urine” value was “less than 0.1%”, the “radioactivity recovered in feces” value is listed as 28.7% and the “radioactivity recovered in urine” value is 51.2%. The total radioactivity recovered result in data set [1] was “about 80%”. For the same molecule, the CLhep predicted in data set [2] (from human liver microsomes, well-stirred model) is on record as 7.7 mL/min/kg. The microsomal CLint at 2 μM in data set [2] (pH 7.4, human liver microsomes 0.5 mg/mL, 2 μM, read-out: in vitro CLintapp) is 22 µL/min/mg. The Tmax in data set [3] (male, Wistar, brain, read-out: time of maximum concentrations in brain) fell in the range of 15 to 30 min. Besides, the “time at which brain concentrations were detected” value in data set [3] was 5 min. Moreover, in data set [4] (rat plasma), the “concentration dependence of plasma protein binding” value is “no evident concentration-dependent binding”. For the same molecule, the fraction unbound at 60 h in data set [4] (rat, plasma, equilibrium dialysis, read-out: Fup rat (unbound fraction in rat plasma)) was determined as 0.031. For the same molecule, the “major enzymes involved in its metabolism in vitro” value in the data set with CYP3A and CYP2E was “CYP3A and CYP2E”.

Values taken from paper PMC5641330, “Prediction of a Therapeutic Dose for Buagafuran, a Potent Anxiolytic Agent by Physiologically Based Pharmacokinetic/Pharmacodynamic Modeling Starting from Pharmacokinetics in Rats and Human” (Frontiers in Pharmacology, 2017).
